Experiments:
chorioallantoic membrane = assay: Anti-redness effect: Het-CAM method; details: 5000 ppm aspirin (positive control); SDS irritant; irritant alone 10 +/− 1.63
From the text: b. Evaluation of the Anti-Redness Effect: Het-CAM Method The Het-CAM model is recommended as an alternative method for the evaluation of the irritant effect of cosmetics. The model uses eggs at a very early stage of development since the nervous system is not yet fully developed (JORF No. 300, Dec. 26, 1996). A moderately irritant product induces instantaneous changes in the capillary density of the chorioallantoic membrane. Previously invisible blood vessels become clearly visible under the effect of vasodilatation. This property was exploited to evaluate the effect of the combination of oridonin and darutoside. The combination oridonin+darutoside was applied to the surface of the chorioallantoic membrane and, after incubation, a surfactant, used as an SDS irritant agent, in an appropriate concentration, was applied to the surface of the membrane. A score was determined by an experienced operator and compared to that for the membranes exposed to the irritant alone (negative control) and that for the membranes exposed to aspirin, used as the positive control (JORF published method, modified).

[1] = test system: reduced glutathione (GSH); assay: Stimulation of reduced glutathione (GSH) synthesis, ELISA; assay type: cell-based; details: human keratinocytes, 24 h
Experimental: c. Stimulation of Reduced Glutathione (GSH) Synthesis
Human keratinocytes at confluence are exposed 24 h to tested products. Intracellular GSH concentration was determined by ELISA.

Human melanocytes = assay: Melanogenesis of human melanocytes in monolayer (melanin content); assay type: cell-based; details: 5 days, n=4
Experimental: iii. Change in the Melanogenesis of Human Melanocytes in Monolayer
Human melanocytes were cultured and exposed with the test products for 5 days. After incubation the melanin content was measured in cell homogenates (n=4).

G3PDH = assay: Slimming: G3PDH activity in differentiating human preadipocytes; assay type: cell-based; details: for Act G3PDH: 10 days of differentiation, control 220.2 +/− 32.8; for Act G3PDH % Change: vs control
Experimental: Human preadipocytes are cultured and induced to differentiate in the presence of oridonin. After 10 days of differentiation, G3PDH activity was measured in cell homogenates as a marker of differentiation. (n=4).

[2] = Oxygen-Radical Absorbance Capacity (ORAC) test; assay type: biochemical; details: n = 6, vs control
From the text: a. Reduction in Peroxyl Radicals: ORAC Test
The Oxygen-Radical Absorbance Capacity (ORAC) test is a method enabling evaluation of the antioxidant capability of molecules and extracts of plant origin. […] The free radical-induced […] of fluorescein decreases its fluorescence. The antioxidant molecules will reduce this degradation

## CC(=O)Oc1ccccc1C(=O)O [aspirin]
Chorioallantoic membrane
  Mean score (inflammation index): 2 +/− 2.06

## darutoside
[1]; darutoside 10 ppm
  GSH change as % of control: +3%; dns
[1]; darutoside 15 ppm
  GSH change as % of control: +2%; dns
Human melanocytes; darutoside alone, 3.75 ppm
  % Change/control (melanin content): +1%; dns
Human melanocytes; darutoside alone, 5 ppm
  % Change/control (melanin content): +2%; dns
Human melanocytes; darutoside alone, 7.5 ppm
  % Change/control (melanin content): −4%; dns
Human melanocytes; darutoside alone, 10 ppm
  % Change/control (melanin content): −7%; p < 0.05

## C=C1C(=O)[C@]23[C@H](O)[C@H]1CC[C@H]2[C@@]12CO[C@]3(O)[C@@H](O)[C@@H]1C(C)(C)CC[C@@H]2O [oridonin]
[1]; oridonin 3 ppm
  GSH change as % of control: +41%; p < 0.01
[1]; oridonin 4.5 ppm
  GSH change as % of control: +79%; p < 0.01
G3PDH; oridonin 2.7 ppm
  Act G3PDH: 162.1 +/− 31.4 mU/10^6 cell
  Act G3PDH % Change: −26%; p < 0.05
G3PDH; oridonin 3.6 ppm
  Act G3PDH: 127.7 +/− 19.2 mU/10^6 cell
  Act G3PDH % Change: −42%; p < 0.01
[2]; oridonin 1.5 ppm
  effect on the reduction of the destruction of fluorescein by free radicals: +14%; p < 0.01
[2]; oridonin 3 ppm
  effect on the reduction of the destruction of fluorescein by free radicals: +4%; dns
[2]; oridonin 4.5 ppm
  effect on the reduction of the destruction of fluorescein by free radicals: −4%; dns
Human melanocytes; oridonin alone, 2.25 ppm
  % Change/control (melanin content): −23%; p < 0.01
Human melanocytes; oridonin alone, 3 ppm
  % Change/control (melanin content): −34%; p < 0.01
Human melanocytes; oridonin alone, 5 ppm (so in the source)
  % Change/control (melanin content): −21%; p < 0.01
Human melanocytes; oridonin alone, 125 ppm (so in the source)
  % Change/control (melanin content): −16%; p < 0.01

Source: patent US9050477B2, “Cosmetic compositions comprising oridonin and new cosmetic uses” (SEDERMA, priority 2009, dated 2015)
